{"source": "paper PMC5715595", "about": "(British Journal of Pharmacology, 2017)", "key": {"[1]": {"tested_on": "conscious telemetered dogs", "assay": "in vivo", "settings": "dog", "protocol": "(§1) Telemetry implantation was performed as previously described (Lacroix et al., 2003). Approximately 2 weeks later, blood pressure, heart rate and ECG intervals were recorded per blocks of 30 s at the time points of interest for 30 min before and for 24 h after administration of test compound. ECG traces were inspected visually for any rhythm or conduction abnormalities (such as arrhythmia, tachyarrhythmia, atrioventricular conduction blocks), and values of PR, QRS and QT intervals were obtained by a validated manual reading procedure (mean calculated from three non‐consecutive sinus beats). The QT interval measured was corrected for heart rate using the Fridericia formula (QTcF) and the van de Waters formula. […] Five to six dogs (two or three males and three females) were studied with at least 48 h between each test session.\n(§2) At the highest dose of 15 mg·kg^−1 p.o., this route provided an exposure (59 ± 25 ng·mL^−1), without any adverse CNS events (i.e. pre‐convulsive signs) in this species, close to the exposure recorded in humans at therapeutic doses. […] Pitolisant serum levels were assessed by LC‐mass spectrometry using a validated analytical method."}, "in vivo [2]": {"assay": "in vivo", "settings": "both sexes, Beagle, dog, in vivo; for concentration at 1 h: po, 1 h after administration, read-out: total drug exposure (serum level)", "protocol": "as §1, §2"}, "[3]": {"tested_on": "human stem cell‐derived cardiomyocytes", "type": "cell-based", "description": ". Human cardiomyocytes (Cor.4U®, Axiogenesis AG, Cologne, Germany) were derived from human iPSC. Preparations were stimulated at 0.5 Hz with 4 ms rectangular pulses from 1 to 1.5 times depolarization threshold to −60 mV. We studied RMP, APA, action potential durations measured at 20 and 90% repolarization (APD20 and APD90) and APD90‐APD20. […]"}, "KV4.3": {"target": "T1, KV4.3 (Homo sapiens, UniProt Q9UK17)", "T1 construct": "expressed in transfected cells", "T1 sequence (Q9UK17 1-655)": "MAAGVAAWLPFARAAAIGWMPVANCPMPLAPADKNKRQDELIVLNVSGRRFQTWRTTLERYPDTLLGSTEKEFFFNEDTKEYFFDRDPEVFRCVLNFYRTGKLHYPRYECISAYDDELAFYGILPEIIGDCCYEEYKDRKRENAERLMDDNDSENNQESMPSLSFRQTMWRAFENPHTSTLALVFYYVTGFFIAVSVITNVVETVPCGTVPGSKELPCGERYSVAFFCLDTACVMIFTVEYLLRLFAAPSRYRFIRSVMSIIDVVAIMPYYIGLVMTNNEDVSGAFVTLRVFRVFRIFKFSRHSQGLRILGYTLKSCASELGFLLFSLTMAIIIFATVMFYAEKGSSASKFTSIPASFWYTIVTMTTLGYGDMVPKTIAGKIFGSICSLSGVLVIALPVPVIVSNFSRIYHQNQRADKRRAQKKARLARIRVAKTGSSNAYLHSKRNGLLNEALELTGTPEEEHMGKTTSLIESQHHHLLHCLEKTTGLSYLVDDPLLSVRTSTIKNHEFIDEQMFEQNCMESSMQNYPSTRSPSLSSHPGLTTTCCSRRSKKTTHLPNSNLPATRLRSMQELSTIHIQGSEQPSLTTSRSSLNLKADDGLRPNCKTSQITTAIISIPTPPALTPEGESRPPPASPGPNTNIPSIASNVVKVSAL", "assay": "Whole-cell patch clamp on KV4.3 (Ito)", "type": "cell-based", "protocol": "and CiPA Initiative Studies\n=============================================================\nIn vitro studies on other ion channels […]\nthrough NaV1.5, KV4.3, KV7.1/mink, Kir2.1, KV1.5, CaV1.2 and CaV3.2 channels.\n35-mm dish culture in the conditions mentioned in standard cell culture conditions. Experiments were performed with a cell density enabling isolated cells for patch clamping. Cells were continuously superfused with extracellular medium (1-2 mL∙minute-1) at room temperature.\nD-glucose 10, HEPES 10 and the final pH adjusted to 7.4±0.02 with NaOH for recording NaV1.5, KV4.3, KV7.1/mink, Kir2.1, KV1.5 and CaV3.2 currents. It was (in mM): NaCl 110, KCl 4, BaCl2 20, MgCl2 1, D-glucose 20, HEPES 10 and the final pH adjusted to 7.4 ± 0.02 with NaOH for recording the CaV1.2 current. Compositions of the intracellular solution to fill the pipette are […]\nComposition of intracellular solutions used to fill pipette to record currents through NaV1.5, KV4.3, KV7.1/mink, Kir2.1, KV1.5, CaV1.2 and CaV3.2 channels\nSolution to fill the pipette (mM)\nCreatine-phospho kinase 50 U∙mL-1\nAfter formation of a Gigaohm seal between the patch electrodes and individual cells (pipette resistance range: 2.0 MΩ - 7.0 MΩ; seal resistance range: > 1 GΩ) the cell membrane across the pipette tip was ruptured to assure electrical access to the cell interior (whole-cell patch-configuration). In case the quality of the seal was poor, the process of seal formation was repeated with a different cell and a new pipette. As soon as a stable seal was established outward tail currents were measured upon pulses described in the Table S2. If current density was judged to be too low for measurement, another cell was recorded. […]\nvoltage stimulation protocol indicated in the next table continuously run until the steady-state level of block was reached.\nStimulation conditions used to record currents through NaV1.5, KV4.3, KV7.1/mink, Kir2.1, KV1.5, CaV1.2 and CaV3.2 channels\nIon channel Holding potential Pulse / duration Frequency Reference compound […]\n(resting / fast / slow sweeps at one (10 mM) inactivated concentration)"}, "[4]": {"tested_on": "methoxamine‐sensitized rabbits", "assay": "in vivo", "set-up": "species or system rabbit", "settings": "pitolisant alone, 50 and 150 μg·kg^−1·min^−1 over 1 h", "protocol": "(§3) All the other experimental groups were 100% female.\n(§4) The anaesthetized methoxamine‐sensitized rabbit model of TdP is frequently used to study torsadogenic potential of drugs (Carlsson et al., 1990). Briefly, female animals were pre‐sensitized with i.v. infusion of methoxamine, an α1‐adrenoceptor agonist, delivered at 15 μg·kg^−1·min^−1 (6 mL·h^−1) over 70 min."}, "in vivo [5]": {"assay": "in vivo", "set-up": "species or system rabbit", "settings": "female, rabbit, in vivo, iv, read-out: free drug concentration", "protocol": "as §3, §4"}, "[6]": {"settings": "human, 40 mg daily dosing; ref Shah et al., 2016; cited from earlier work"}}, "note": "Where two headings read alike, the source gives them in different places."}
{"compound": "Cl.Clc1ccc(CCCOCCCN2CCCCC2)cc1", "note": "[pitolisant, 1‐{3‐[3‐(4‐chlorophenyl)propoxy]propyl}piperidine, hydrochloride]", "values": [{"measurement": "free drug concentration", "setting": "[1]; both, Beagle, in vivo, iv", "value": "~ 0.14 μM"}, {"measurement": "effect on mean arterial blood pressure and heart rate", "setting": "[1]; 4.5 mg·kg^−1 i.v., for up to 4 h after injection", "value": "increases in mean arterial blood pressure and heart rate"}, {"measurement": "effect on QTcF interval", "setting": "[1]; 4.5 mg·kg^−1 i.v., return to baseline 30 min after injection", "value": "decrease in QTcF interval for 20 min"}, {"measurement": "total drug exposure (serum level)", "setting": "[1]; 15 mg·kg^−1 p.o., 1 h after administration", "value": "59.2 ± 24.6", "unit": "ng/mL"}, {"measurement": "arrhythmia or other morphological changes in the ECG", "setting": "[1]; over the test period, 6/6 dogs", "value": "No arrhythmia or other morphological changes in the ECG"}, {"measurement": "effect on heart rate, mean arterial blood pressure, QTc interval or any other ECG parameter", "setting": "[1]; single doses 5, 10 and 15 mg·kg^−1 p.o. or 1.5 mg·kg^−1 i.v., compared to vehicle", "value": "no effect"}, {"measurement": "concentration at 5 min", "setting": "in vivo [2]; iv, 1.5 mg·kg^−1 i.v., 5 min, read-out: total drug concentration", "value": "294 ± 40", "unit": "ng/mL"}, {"measurement": "concentration at 30 min", "setting": "in vivo [2]; iv, 1.5 mg·kg^−1 i.v., 30 min, read-out: total drug concentration", "value": "231 ± 36", "unit": "ng/mL"}, {"measurement": "concentration at 1 h", "setting": "in vivo [2]; 5 mg·kg^−1 p.o.", "value": "3.5 ± 1", "unit": "ng/mL"}, {"measurement": "concentration at 1 h", "setting": "in vivo [2]; 10 mg·kg^−1 p.o.", "value": "15.8 ± 5.8", "unit": "ng/mL"}, {"measurement": "concentration at 1 h", "setting": "in vivo [2]; 15 mg·kg^−1 p.o.", "value": "59 ± 25", "unit": "ng/mL"}, {"measurement": "effect on dofetilide-induced increase in APD90", "setting": "[3]", "value": "fully reversed"}, {"measurement": "increase in APD90–20 vs. baseline", "setting": "[3]; 3 μM", "value": 192, "unit": "ms"}, {"measurement": "maximal increase in APD90", "setting": "[3]; 3 μM", "value": 97, "unit": "ms"}, {"measurement": "increase in APD90–20 vs. baseline", "setting": "[3]; 10 μM", "value": 176, "unit": "ms"}, {"measurement": "effect on APD20", "setting": "[3]; 1, 3 or 10 μM", "value": "concentration‐dependent effect of decreasing APD20"}, {"measurement": "effect on RMP and APA", "setting": "[3]; 1, 3 or 10 μM", "value": "little effect"}, {"measurement": "IC50", "setting": "KV4.3; KV4.3 Ito, Hill curve fit with Hill coefficient of one, read-out: Fitted IC50", "value": 11.4, "unit": "µM"}, {"measurement": "IC50", "setting": "KV4.3; Pitolisant IC50, KV4.3, Ito", "value": "~10", "unit": "µM"}, {"measurement": "effect on QTc interval", "setting": "[4]", "value": "devoid of any effect on QTc interval"}, {"measurement": "pro-arrhythmic effect", "setting": "[4]", "value": "lacked any pro‐arrhythmic effect"}, {"measurement": "concentration at 1 h", "setting": "in vivo [5]; after 50 μg·kg^−1·min^−1 1 h i.v. infusion", "value": "~140", "unit": "nM"}, {"measurement": "concentration at 1 h", "setting": "in vivo [5]; after 150 μg·kg^−1·min^−1 1 h i.v. infusion", "value": "~450", "unit": "nM"}, {"measurement": "highest clinically relevant exposure", "setting": "[6]", "value": 72, "unit": "ng/mL"}]}
